Experimental data from PubChem BioAssay (NCI).
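These data come from cells grown in 96-well plates and exposed to compound for 48 hours at five concentrations. TGI: concentration producing complete growth inhibition.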

What was measured:
Assay in all cases: NCI anticancer screen, dose series, 48 h
786-0 renal = system: 786-0 renal
A498 renal = system: A498 renal
A549 NSCLC = system: A549 NSCLC
ACHN renal = system: ACHN renal
CAKI-1 renal = system: CAKI-1 renal
CCRF-CEM leukemia = system: CCRF-CEM leukemia
COLO 205 colon = system: COLO 205 colon
DLD-1 colon = system: DLD-1 colon
DMS 114 small cell lung = system: DMS 114 small cell lung
DMS 273 small cell lung = system: DMS 273 small cell lung
EKVX NSCLC = system: EKVX NSCLC
HCC-2998 colon = system: HCC-2998 colon
HCT-116 colon = system: HCT-116 colon
HCT-15 colon = system: HCT-15 colon
HL-60(TB) leukemia = system: HL-60(TB) leukemia
HOP-18 NSCLC = system: HOP-18 NSCLC
HOP-62 NSCLC = system: HOP-62 NSCLC
HOP-92 NSCLC = system: HOP-92 NSCLC
HT29 colon = system: HT29 colon
IGROV1 ovarian = system: IGROV1 ovarian
K-562 leukemia = system: K-562 leukemia
KM12 colon = system: KM12 colon
KM20L2 colon = system: KM20L2 colon
LOX IMVI melanoma = system: LOX IMVI melanoma
LXFL 529 NSCLC = system: LXFL 529 NSCLC
M14 melanoma = system: M14 melanoma
M19-MEL melanoma = system: M19-MEL melanoma
MALME-3M melanoma = system: MALME-3M melanoma
MOLT-4 leukemia = system: MOLT-4 leukemia
NCI-H226 lung = system: NCI-H226 lung
NCI-H23 lung = system: NCI-H23 lung
NCI-H460 lung = system: NCI-H460 lung
NCI-H522 lung = system: NCI-H522 lung
OVCAR-3 ovarian = system: OVCAR-3 ovarian
OVCAR-4 ovarian = system: OVCAR-4 ovarian
OVCAR-5 ovarian = system: OVCAR-5 ovarian
OVCAR-8 ovarian = system: OVCAR-8 ovarian
RPMI-8226 leukemia = system: RPMI-8226 leukemia
RXF 393 renal = system: RXF 393 renal
RXF-631 renal = system: RXF-631 renal
SF-268 CNS = system: SF-268 CNS
SF-295 CNS = system: SF-295 CNS
SF-539 CNS = system: SF-539 CNS
SK-MEL-2 melanoma = system: SK-MEL-2 melanoma
SK-MEL-28 melanoma = system: SK-MEL-28 melanoma
SK-MEL-5 melanoma = system: SK-MEL-5 melanoma
SK-OV-3 ovarian = system: SK-OV-3 ovarian
SN12C renal = system: SN12C renal
SNB-19 CNS = system: SNB-19 CNS
SNB-75 CNS = system: SNB-75 CNS
SW-620 colon = system: SW-620 colon
TK-10 renal = system: TK-10 renal
U251 CNS = system: U251 CNS
UACC-62 melanoma = system: UACC-62 melanoma
SNB-78 CNS = system: SNB-78 CNS
UACC-257 melanoma = system: UACC-257 melanoma
UO-31 renal = system: UO-31 renal

Structure (SMILES): Cc1cc(=O)oc2cc(OCc3nc4ccccc4c(=O)n3-c3ccccc3)ccc12
- TGI (786-0 renal): > 100 µM
- TGI (A498 renal): > 100 µM
- TGI (A549 NSCLC): > 100 µM
- TGI (ACHN renal): > 100 µM
- TGI (CAKI-1 renal): > 100 µM
- TGI (CCRF-CEM leukemia): > 100 µM
- TGI (COLO 205 colon): > 100 µM
- TGI (DLD-1 colon): > 100 µM
- TGI (DMS 114 small cell lung): > 100 µM
- TGI (DMS 273 small cell lung): > 100 µM
- TGI (EKVX NSCLC): > 100 µM
- TGI (HCC-2998 colon): > 100 µM
- TGI (HCT-116 colon): > 100 µM
- TGI (HCT-15 colon): > 100 µM
- TGI (HL-60(TB) leukemia): > 100 µM
- TGI (HOP-18 NSCLC): > 100 µM
- TGI (HOP-62 NSCLC): > 100 µM
- TGI (HOP-92 NSCLC): 96.4 µM
- TGI (HT29 colon): > 100 µM
- TGI (IGROV1 ovarian): > 100 µM
- TGI (K-562 leukemia): > 100 µM
- TGI (KM12 colon): > 100 µM
- TGI (KM20L2 colon): > 100 µM
- TGI (LOX IMVI melanoma): > 100 µM
- TGI (LXFL 529 NSCLC): > 100 µM
- TGI (M14 melanoma): > 100 µM
- TGI (M19-MEL melanoma): > 100 µM
- TGI (MALME-3M melanoma): > 100 µM
- TGI (MOLT-4 leukemia): > 100 µM
- TGI (NCI-H226 lung): > 100 µM
- TGI (NCI-H23 lung): > 100 µM
- TGI (NCI-H460 lung): > 100 µM
- TGI (NCI-H522 lung): > 100 µM
- TGI (OVCAR-3 ovarian): > 100 µM
- TGI (OVCAR-4 ovarian): > 100 µM
- TGI (OVCAR-5 ovarian): > 100 µM
- TGI (OVCAR-8 ovarian): > 100 µM
- TGI (RPMI-8226 leukemia): > 100 µM
- TGI (RXF 393 renal): > 100 µM
- TGI (RXF-631 renal): > 100 µM
- TGI (SF-268 CNS): > 100 µM
- TGI (SF-295 CNS): > 100 µM
- TGI (SF-539 CNS): > 100 µM
- TGI (SK-MEL-2 melanoma): > 100 µM
- TGI (SK-MEL-28 melanoma): > 100 µM
- TGI (SK-MEL-5 melanoma): > 100 µM
- TGI (SK-OV-3 ovarian): > 100 µM
- TGI (SN12C renal): > 100 µM
- TGI (SNB-19 CNS): 97.7 µM
- TGI (SNB-75 CNS): 46.7 µM
- TGI (SW-620 colon): > 100 µM
- TGI (TK-10 renal): > 100 µM
- TGI (U251 CNS): > 100 µM
- TGI (UACC-62 melanoma): > 100 µM

Structure (SMILES): COc1c(C)c(O)c2c(=O)cc(-c3ccccc3)oc2c1C
- TGI (786-0 renal): > 100 µM
- TGI (A498 renal): > 100 µM
- TGI (A549 NSCLC): > 100 µM
- TGI (ACHN renal): > 100 µM
- TGI (CAKI-1 renal): > 100 µM
- TGI (CCRF-CEM leukemia): > 100 µM
- TGI (DLD-1 colon): > 100 µM
- TGI (DMS 114 small cell lung): > 100 µM
- TGI (EKVX NSCLC): > 100 µM
- TGI (HCC-2998 colon): > 100 µM
- TGI (HCT-116 colon): > 100 µM
- TGI (HCT-15 colon): > 100 µM
- TGI (HOP-18 NSCLC): > 100 µM
- TGI (HOP-62 NSCLC): > 100 µM
- TGI (HOP-92 NSCLC): > 100 µM
- TGI (HT29 colon): > 100 µM
- TGI (IGROV1 ovarian): > 100 µM
- TGI (K-562 leukemia): > 100 µM
- TGI (KM12 colon): > 100 µM
- TGI (KM20L2 colon): > 100 µM
- TGI (LOX IMVI melanoma): > 100 µM
- TGI (LXFL 529 NSCLC): > 100 µM
- TGI (M14 melanoma): > 100 µM
- TGI (M19-MEL melanoma): > 100 µM
- TGI (MALME-3M melanoma): > 100 µM
- TGI (MOLT-4 leukemia): > 100 µM
- TGI (NCI-H226 lung): > 100 µM
- TGI (NCI-H23 lung): > 100 µM
- TGI (NCI-H460 lung): > 100 µM
- TGI (NCI-H522 lung): > 100 µM
- TGI (OVCAR-3 ovarian): > 100 µM
- TGI (OVCAR-4 ovarian): > 100 µM
- TGI (OVCAR-5 ovarian): > 100 µM
- TGI (OVCAR-8 ovarian): > 100 µM
- TGI (RXF-631 renal): > 100 µM
- TGI (SF-268 CNS): > 100 µM
- TGI (SF-295 CNS): > 100 µM
- TGI (SF-539 CNS): > 100 µM
- TGI (SK-MEL-2 melanoma): > 100 µM
- TGI (SK-MEL-28 melanoma): > 100 µM
- TGI (SK-MEL-5 melanoma): > 100 µM
- TGI (SK-OV-3 ovarian): > 100 µM
- TGI (SN12C renal): > 100 µM
- TGI (SNB-75 CNS): > 100 µM
- TGI (SNB-78 CNS): > 100 µM
- TGI (SW-620 colon): > 100 µM
- TGI (TK-10 renal): > 100 µM
- TGI (U251 CNS): > 100 µM
- TGI (UACC-257 melanoma): > 100 µM
- TGI (UACC-62 melanoma): > 100 µM
- TGI (UO-31 renal): > 100 µM

Structure (SMILES): CCCCCCCCOCC(CO)OCCCCCCCC (stereo not drawn)
- TGI (786-0 renal): 33.9 µM
- TGI (A498 renal): 42 µM
- TGI (A549 NSCLC): 37.2 µM
- TGI (ACHN renal): 31.8 µM
- TGI (CAKI-1 renal): > 100 µM
- TGI (CCRF-CEM leukemia): 42.5 µM
- TGI (COLO 205 colon): 39.7 µM
- TGI (DLD-1 colon): 33.1 µM
- TGI (DMS 114 small cell lung): 42.3 µM
- TGI (DMS 273 small cell lung): 33.4 µM
- TGI (HCC-2998 colon): 33.6 µM
- TGI (HCT-116 colon): 33.6 µM
- TGI (HCT-15 colon): 29.7 µM
- TGI (HL-60(TB) leukemia): 34.1 µM
- TGI (HOP-18 NSCLC): 24.5 µM
- TGI (HOP-62 NSCLC): 37.2 µM
- TGI (HOP-92 NSCLC): 49.2 µM
- TGI (HT29 colon): 36.6 µM
- TGI (IGROV1 ovarian): 40.8 µM
- TGI (K-562 leukemia): 32.4 µM
- TGI (LOX IMVI melanoma): 32 µM
- TGI (LXFL 529 NSCLC): 33.1 µM
- TGI (M14 melanoma): 67.1 µM
- TGI (M19-MEL melanoma): 36.3 µM
- TGI (MALME-3M melanoma): 34.9 µM
- TGI (MOLT-4 leukemia): 37.9 µM
- TGI (NCI-H226 lung): 44.9 µM
- TGI (NCI-H23 lung): 33 µM
- TGI (NCI-H460 lung): 30 µM
- TGI (OVCAR-3 ovarian): 34.2 µM
- TGI (OVCAR-4 ovarian): 34.7 µM
- TGI (OVCAR-5 ovarian): 32.7 µM
- TGI (OVCAR-8 ovarian): 37.7 µM
- TGI (RPMI-8226 leukemia): 42.5 µM
- TGI (RXF-631 renal): 32 µM
- TGI (SF-268 CNS): 29.7 µM
- TGI (SF-295 CNS): 30.5 µM
- TGI (SK-MEL-28 melanoma): 34.2 µM
- TGI (SK-MEL-5 melanoma): 33.8 µM
- TGI (SK-OV-3 ovarian): > 100 µM
- TGI (SN12C renal): 31.8 µM
- TGI (SNB-19 CNS): 41.8 µM
- TGI (SW-620 colon): 37.4 µM
- TGI (TK-10 renal): 34.4 µM
- TGI (U251 CNS): 32.3 µM
- TGI (UACC-257 melanoma): 37.1 µM
- TGI (UACC-62 melanoma): 43.3 µM
- TGI (UO-31 renal): 35.9 µM
